According to the supplement of paper PMC10307832:

Compound: CC(C)C[C@H](NC(=O)[C@H](CCc1ccccc1)NC(=O)CN1CCOCC1)C(=O)N[C@@H](Cc1ccccc1)C(=O)N[C@@H](CC(C)C)C(=O)[C@@]1(C)CO1 [Carfilzomib] + CC(=O)Nc1cccc(-n2c(=O)n(C3CC3)c(=O)c3c(Nc4ccc(I)cc4F)n(C)c(=O)c(C)c32)c1 [Trametinib] (partner 0.02 µM)
Assay: relative viability (nuclei count vs DMSO), 5 days (fraction); higher = more cells survive
Conditions: first compound 0.1 µM
Outline: (§1)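 Lung cancer cell lines, seeded in 1536-well plates, were treated the following day by pin tool with a single drug or with five library-drug doses (not always all listed) in √10 steps on top of a fixed anchor-drug dose. Cells were fixed and nuclei stained in one step after 5 days, and nuclei were counted. Relative viability is the nuclei count for treated wells divided by that for vehicle wells, reported as medians of duplicate plates.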

Cell Line | relative viability
NCI-H2126 | 0.447
NCI-H2170 | 0.25
NCI-H2342 | 0.633
NCI-H2347 | 0.262
NCI-H2405 | 0.236

Compound: CC(C)C[C@H](NC(=O)[C@H](CCc1ccccc1)NC(=O)CN1CCOCC1)C(=O)N[C@@H](Cc1ccccc1)C(=O)N[C@@H](CC(C)C)C(=O)[C@@]1(C)CO1 [Carfilzomib] + NC(=O)Nc1cc(-c2cccc(F)c2)sc1C(=O)N[C@H]1CCCNC1 [AZD7762] (partner 0.2 µM)
Assay: as above
Conditions: first compound 0.001 µM
Outline: as §1

Cell Line | relative viability
LU99A | 0.346
LXF-289 | 1.06
NCI-H23 | 0.232
NCI-H322M | 0.677
NCI-H358 | 0.449
NCI-H441 | 1.06
NCI-H460 | 0.655
NCI-H522 | 0.782
NCI-H596 | 1.05
NCI-H647 | 0.385
NCI-H650 | 0.862
NCI-H727 | 0.511
NCI-H838 | 0.945
NCI-H1355 | 0.8
NCI-H1437 | 1.07
NCI-H1648 | 0.657

Cell Line | relative viability
NCI-H1651 | 0.372
NCI-H1666 | 0.837
NCI-H1734 | 0.549
NCI-H1755 | 0.476
NCI-H1915 | 0.61
NCI-H1944 | 0.538
NCI-H1975 | 0.651
NCI-H1993 | 0.625
NCI-H2085 | 0.726
NCI-H2087 | 1.21
NCI-H2126 | 0.875
NCI-H2170 | 0.846
NCI-H2342 | 0.462
NCI-H2347 | 0.696
NCI-H2405 | 0.717

Same assay, conditions: first compound 0.003162 µM

Cell Line | relative viability
LU99A | 0.368
LXF-289 | 1.14
NCI-H23 | 0.267
NCI-H322M | 0.527
NCI-H358 | 0.615
NCI-H441 | 1.23
NCI-H460 | 0.567
NCI-H522 | 0.901
NCI-H596 | 1.22
NCI-H647 | 0.468
NCI-H650 | 1.1
NCI-H727 | 0.498
NCI-H838 | 0.989
NCI-H1355 | 0.886
NCI-H1395 | 0.451
NCI-H1437 | 1.13

Cell Line | relative viability
NCI-H1648 | 0.621
NCI-H1651 | 0.471
NCI-H1666 | 0.935
NCI-H1734 | 0.633
NCI-H1755 | 0.502
NCI-H1915 | 0.711
NCI-H1944 | 0.568
NCI-H1975 | 0.804
NCI-H1993 | 0.841
NCI-H2085 | 0.942
NCI-H2087 | 1.31
NCI-H2126 | 1
NCI-H2170 | 0.963
NCI-H2342 | 0.513
NCI-H2347 | 0.814
NCI-H2405 | 0.783

Same assay, conditions: first compound 0.01 µM

Cell Line | relative viability
LU99A | 0.33
LXF-289 | 1.14
NCI-H23 | 0.196
NCI-H322M | 0.682
NCI-H358 | 0.63
NCI-H441 | 1.07
NCI-H460 | 0.687
NCI-H522 | 0.925
NCI-H596 | 1.09
NCI-H647 | 0.29
NCI-H650 | 0.964
NCI-H727 | 0.685
NCI-H838 | 0.954
NCI-H1355 | 0.91
NCI-H1395 | 0.399
NCI-H1437 | 1.13

Cell Line | relative viability
NCI-H1648 | 0.603
NCI-H1651 | 0.457
NCI-H1666 | 1.1
NCI-H1734 | 0.521
NCI-H1755 | 0.496
NCI-H1915 | 0.57
NCI-H1944 | 0.587
NCI-H1975 | 0.684
NCI-H1993 | 0.69
NCI-H2085 | 0.988
NCI-H2087 | 0.946
NCI-H2126 | 1.01
NCI-H2170 | 1.02
NCI-H2342 | 0.689
NCI-H2347 | 0.642
NCI-H2405 | 0.932

Same assay, conditions: first compound 0.03162 µM

Cell Line | relative viability
LU99A | 0.26
LXF-289 | 0.119
NCI-H23 | 0.112
NCI-H322M | 0.59
NCI-H358 | 0.255
NCI-H441 | 0.252
NCI-H460 | 0.732
NCI-H522 | 0.428
NCI-H596 | 0.66
NCI-H647 | 0.0154
NCI-H650 | 0.88
NCI-H727 | 0.608
NCI-H838 | 0.962
NCI-H1355 | 0.512
NCI-H1395 | 0.346
NCI-H1437 | 1.14

Cell Line | relative viability
NCI-H1648 | 0.407
NCI-H1651 | 0.208
NCI-H1666 | 0.704
NCI-H1734 | 0.204
NCI-H1755 | 0.435
NCI-H1915 | 0.414
NCI-H1944 | 0.448
NCI-H1975 | 0.222
NCI-H1993 | 0.589
NCI-H2085 | 0.321
NCI-H2087 | 0.515
NCI-H2126 | 1.01
NCI-H2170 | 0.734
NCI-H2342 | 0.609
NCI-H2347 | 0.229
NCI-H2405 | 0.689

Same assay, conditions: first compound 0.1 µM

Cell Line | relative viability
LU99A | 0.187
LXF-289 | 0.114
NCI-H23 | 0.122
NCI-H322M | 0.464
NCI-H358 | 0.226
NCI-H441 | 0.138
NCI-H460 | 0.0739
NCI-H522 | 0.337
NCI-H596 | 0.211
NCI-H647 | 0.0223
NCI-H650 | 0.23
NCI-H727 | 0.242
NCI-H838 | 0.621
NCI-H1355 | 0.207
NCI-H1395 | 0.327
NCI-H1437 | 0.478
NCI-H1648 | 0.268
NCI-H1651 | 0.0827
NCI-H1666 | 0.475
NCI-H1734 | 0.114
NCI-H1755 | 0.409
NCI-H1915 | 0.125
NCI-H1944 | 0.317
